Measured values published in US20050143371A1, “Beta-carboline compounds and analogues thereof as mitogen-activated protein kinase-activated protein kinase-2 inhibitors” (Pharmacia Corporation, priority 2003, published 2005).
pIC50: −log10 of the molar value. Values joined by “and” are separate entries in the source; they are usually repeats but may differ in a detail not shown here. Equal values may be shown once. Where a name gives a salt, the structure may show the parent alone. Read-outs that look alike come from different tables or passages of the source.

What was measured:
TNFα release, U937 cells = assay: U937 Cell TNFα Release Assay (LPS-stimulated, TNFα ELISA); assay type: cell-based, human; settings: additional values are replicate IC50 experiments, read-out: TNF Release Assay Avg. IC50
Description: U937 Cell TNFα Release Assay
Differentiation of U937 to monocytic/macrophage-like cells is induced by the addition of phorboll2-myristate 13-acetate (Sigma) at final concentration of 20 ng/ml to a culture of U937 cells at ˜0.5 million cells/ml and incubated for 24 hrs. The cells are centrifuged, washed with PBS and resuspended in fresh media without PMA and incubated for 24 hrs. Cells adherent to the culture flask are harvested by scraping, centrifugation, and resuspended in fresh media to 2 million cells/ml, and 0.2 ml is aliquoted to each of 96 wells in flat-bottom plate. Cells are then incubated for an additional 24 hrs to allow for recovery. The media is removed from the cells, and 0.1 ml of fresh media is added per well. 0.05 ml of serially diluted compound or control vehicle (Media with DMSO) is added to the cells. […] Cells are incubated at 37° C. for 4 hrs. After 4 hrs incubation, supernatants are harvest and assayed by ELISA for the presence of TNFα.
Coating solution was aspirated the following day and wells were blocked with 1 mg/ml gelatin in PBS (plus 1×thimerasol) for 2 days at 4° C. Prior to using, wells were washed 3× with wash buffer (PBS with 0.05% Tween). Cultured media samples were diluted in EIA buffer (5 mg/ml bovine γ-globulin, 1 mg/ml gelatin, 1 ml/l Tween-20, 1 mg/ml thimerasol in PBS), added to wells (0.1 ml/well) in triplicate and allowed to incubate for 1.5 hr at 37° C. in a humidified chamber. […] After final washing, plates were developed with peroxidase-ABTS solution (Kirkegaard/Perry #50-66-01, 0.1 ml/well). […] TNF levels were quantitated from a recombinant human TNFα (R&D Systems #210-TA-010) standard curve using a quadratic parameter fit generated by SoftMaxPRO software. ELISA sensitivity was approximately 30 pg TNF/ml. IC50 values for compounds were generated using BioAssay Solver.

Recombinant MAPKAPK2 = Recombinant MAPKAPK2 (Homo sapiens, UniProt P49137); assay: Determination of MK-2 IC50 (HSP-peptide phosphorylation, anion exchange resin capture assay)
Sequence of Recombinant MAPKAPK2 (P49137 whole entry, species assumed): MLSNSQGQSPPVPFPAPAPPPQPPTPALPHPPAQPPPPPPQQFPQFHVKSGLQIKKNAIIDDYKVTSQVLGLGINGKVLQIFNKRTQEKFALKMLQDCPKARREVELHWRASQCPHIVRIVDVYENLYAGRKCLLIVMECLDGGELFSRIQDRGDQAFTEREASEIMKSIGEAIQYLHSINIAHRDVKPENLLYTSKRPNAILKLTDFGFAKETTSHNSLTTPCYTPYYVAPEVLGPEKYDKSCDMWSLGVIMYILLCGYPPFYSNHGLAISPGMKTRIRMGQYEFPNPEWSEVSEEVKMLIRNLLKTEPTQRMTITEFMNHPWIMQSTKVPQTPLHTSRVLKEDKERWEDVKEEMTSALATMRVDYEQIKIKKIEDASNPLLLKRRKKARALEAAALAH
Description: The phosphorylation of HSP-peptide ([sequence]) by MAPKAPK2 was measured using an anion exchange resin capture assay method. […] The reaction was terminated and [γ^33P]ATP was removed from solution by the addition of 150 μl of AG 1×8 ion exchange resin in 900 mM sodium formate pH 3.0. A 50 μl aliquot of head volume was removed from the quenched reaction mixture and added to a 96-well plate, 150 μl of Microscint-40 (Packard) was added and the amount of phosphorylated-peptide was determined. Allow the Microscint to sit in the plates for 60 minutes prior to counting.
Compounds are evaluated as potential inhibitors of the MK2 kinase by measuring their effects on MK2 phosphorylation of the peptide substrate. Compounds may be screened initially at two concentrations prior to determination of IC50 values. Screening results are expressed as percent inhibition at the concentrations of compound tested. For IC50 value determinations, compounds are tested at six concentrations in ten-fold serial dilutions with each concentration tested in triplicate. Results are expressed as IC50 values in micromolar. The assay is performed at a final concentration of 2% DMSO.

[1] = system: murine model of endotoxin-induced shock; settings: cited from earlier work
rat adjuvant arthritis = settings: in vivo; cited from earlier work
[2] = system: mouse collagen-induced arthritis; settings: in vivo; cited from earlier work
[3] = Homo sapiens, U-937, U937 cells
[4] = read-out: in vitro MK-2 inhibition IC50

**Q.** With `O=C1NCCc2[nH]c3c(ccc4cnccc43)c21` [Compound 1, 8,9,10,11-tetrahydro-7H-py-rido[3′,4′:4,5]pyrrolo[2,3-f]isoquinolin-7-one trifluoroacetate] as the molecule, how does the pIC50 (TNFα release, U937 cells; [3]) read?
**A.** Its pIC50 is 6.07.

**Q.** With `COC(=O)c1cccc2c3c([nH]c12)CCNC3=O` [Example 6, methyl 1-oxo-2,3,4,5-tetrahydro-1H-pyrido[4,3-b]indole-6-carboxylate] as the molecule, how does the pIC50 (Recombinant MAPKAPK2; [4]) read?
**A.** Its pIC50 is greater than 4.70.

**Q.** With `COc1ccc2[nH]c3c(c2c1)CCC(C)/C3=N/O` (stereo not shown) [Compound 19, 6-methoxy-2-methyl-2,3,4,9-tetrahydro-1H-car-bazol-1-one oxime] as the molecule, how does the pIC50 (TNFα release, U937 cells; U937 cells) read?
**A.** Its pIC50 is 4.00 and 4.02.

**Q.** With `O/N=C1\CCCc2c1[nH]c1ccc(Br)cc21` [Compound 14] as the molecule, how does the pIC50 (TNFα release, U937 cells; [3]) read?
**A.** The pIC50 was 4.82.

**Q.** And the pIC50 (Recombinant MAPKAPK2)?
**A.** Its pIC50 is 5.15.

**Q.** With `ON=C1CCCc2c1[nH]c1ccc(C(F)(F)F)cc21` [6-(trifluoromethyl)-2,3,4,9-tetrahydro-1H-carbazol-1-one oxime] as the molecule, how does the pIC50 (Recombinant MAPKAPK2; [4]) read?
**A.** Its pIC50 is greater than 3.70.

**Q.** What does the source list for `C[S+]([O-])c1ccc(-c2nc(-c3ccncc3)c(-c3ccc(F)cc3)[nH]2)cc1` (stereo not shown) [SB203580]?
**A.** mortality [1]: reduce mortality; development of rat adjuvant arthritis (rat adjuvant arthritis): inhibit the development; development of mouse collagen-induced arthritis [2]: inhibit the development

**Q.** With `O=C1NCCc2c1[nH]c1ccc(CCc3ccccc3)cc21` [Compound 42, 6-(2-phenylethyl)-2,3,4,9-tetra-hydro-1H-beta-car-bolin-1-one] as the molecule, how does the pIC50 (Recombinant MAPKAPK2) read?
**A.** The pIC50 was less than 3.70.
